The test system of assay [1] is human CD34+ cells. As to the kind of experiment: Real-time PCR of megakaryocyte-related genes in 7-day differentiated cells from CD34+ bone marrow cells. Format: cell-based. Here is the method:
(§1) We treated human CD34+ cells with different agonists and antagonists of GABRR1.
RNA isolation and Real-Time PCR. Total RNA was extracted by RNeasy Plus Micro kit and RNeasy MinElute Cleanup Kit following manufacturer's instructions (Qiagen). Synthesis of cDNA was performed with the SuperScript™ III Reverse Transcriptase (ThermoFisher Scientific). Real time PCR was done using the Fast SYBR® Green Master Mix (ThermoFisher Scientific) on the 7900 Fast Real-Time PCR System (Applied Biosystems). PCR products were analyzed on a 2% agarose gel.
On the technique in general: Quantitative PCR measures a nucleic acid by following its amplification.

Assay [2] concerns the target T1, GABRR1 (Mus musculus, UniProt P56475).
T1 construct: Mice were randomly grouped and injected once everyday using GABA agonists and antagonists; from tissue; host or cells: whole animal (C57BL/6J mice); read-outs in peripheral blood and bone marrow
As to the kind of experiment: Flow cytometry of bone marrow HSPC populations of mice treated with agonists or antagonists of Gabrr1. Format: in vivo. To be noted: C57BL/6J mice, 7 days of treatment. How it is done: (§2) Mouse injection. […] Muscimol 2 mg/kg, TACA 2 mg/kg and SR95531 4 mg/kg was injected by i.p. The mice were treated for 7 days and then complete blood cell counting was done with the HemaTrue Hematology Analyzer (HESKE).
Flow Cytometry. Mouse bone marrow cells were harvested, washed, and resuspended in PBS containing 2% FBS, and subjected to the staining process with antibodies at their optimal concentrations. […] Then, to enrich HSCs and progenitor populations, cells were stained with APC-conjugated anti-c-Kit (2B8) and then with anti-APC magnetic beads (Miltenyi Biotec) after washing. The c-Kit+cells were eluted from LS columns (Miltenyi Biotec). Those cells then stained with the antibody cocktail directed against cell surface antigens as follows: for early progenitor analysis, Sca-1, Flk2, CD150, CD34, IL-7R, CD16/32, c-kit and the lineage markers Ter-119, B220, CD3, CD4, CD8a, Gr-1, CD11b, CD41. For late stage populations, cells were stained with antibodies specific for Sca-1, Endoglin [CD105], CD150, CD16/32, c-kit [CD117] and the lineage markers for 30 min at 4° C., DNA dye was used for the live/dead cells staining.
Surface marker cocktail of mouse hematopoietic stem and progenitor populations: • HSC: Lin-c-kit+Sca1+CD150+Endoglin+ • MPP: Lin-c-kit+Sca1+Endoglin−CD150− • GMP: Lin-c-kit+Sca1− CD41−FcgRII+ • EP: Lin-c-kit+Sca1− CD41−FcgRII−Endogilin+CD150− • MkP: Lin-c-kit+Sca1− CD150+CD41+ • PreGM: Lin-c-kit+Sca1− CD41−FcgRII−Endogilin−CD150− • Pre CFU-E: Lin-c-kit+Sca1− CD41−FcgRII−Endogilin+CD150+ • MEP: Lin-c-kit+Sca1− CD41−FcgRII−Endogilin−CD150+.

Assay [3] deals with T1, GABRR1. Kind of assay: Patch-clamp recording of GABA-evoked currents in purified GR+ and GR− MkPs and HSCs. Format: cell-based. The settings on record: 1 mM GABA, whole-cell patch clamp. The text has this:
Gabrr1^+ (GR^+) and Gabrr1^− (GR^−) HSCs or MkPs cells were then purified and tested by electrophysiological recording using patch-clamp techniques.
Electrophysiology. Whole-cell voltage-clamped recordings were made from the dissociated blood cells perfused in oxygenated ACSF containing the following (in mM): 119 NaCl, 26 NaHCO3, 10 glucose, 1.25 NaH2PO4, 2.5 KCl, 2 CaCl2, 1 MgCl2, 2 Na-pyruvate, and 0.5 ascorbic acid, pH 7.4. […] Cells were voltage clamped at various levels between −80 mV to 60 mV. The pipette internal solution contains (in mM): 120 Cs—Cl, 20 tetraethylammonium-Cl, 20 HEPES, 2 EGTA, 4 MgATP, 0.4 NaGTP, 10 phosphocreatine.
The drug was applied through a second pipette (resistance of 3-4 MΩ) connected to Picospritzer (Cleveland, OH, USA) at a pulse duration of 100 ms and pressure of 5-10 kPa.

Assay [4] has as its target T1, GABRR1. Kind of assay: Complete blood cell counts in peripheral blood of mice treated with agonists or antagonists of Gabrr1. It counts as in vivo. The settings on record: C57BL/6J mice, 7 days of treatment, injected once every day. Here is the method:
as §2

The test system of assay [5] is human CD34+ cells. As to the kind of experiment: Flow cytometry of HSPC populations after 7-day differentiation of human CD34+ cells treated with agonists or antagonists of GABRR1. Format: cell-based. Here is the method: as §1
Cell Isolation and Culture. Human bone marrow mononuclear cells were purchased from AllCells and cultured in StemSpan™ Serum-Free Expansion Medium II (SFEM II, StemCell Technologies), supplemented with 20 ng/ml hSCF (PeproTech), hTPO, hIL-3, hIL-6 and Flt3 (R&D Systems). Mouse bone marrow mononuclear cells were isolated from mice and cultured in StemSpan™ SFEMI (StemCell Technologies), supplemented with mTPO and mSCF (PeproTech). […] Medium was changed every other day.
Human bone marrow or cord blood cells were stained in a similar way using Rat IgG for blocking and PI for viability. Human cells were stained with the antibodies cocktails as follows: CD34, CD38, CD45RA, CD123, CD71, CD105, CD41 and the lineage markers CD2, CD4, CD8, CD11b/Mac-1, CD14, CD19, CD20, CD56 and CD235a. The GABRR1 antibodies were also used for staining (Bloss Antibodies).
Surface marker cocktail of human hematopoietic stem and progenitor populations: • HSCs/MPPs: Lin-CD34+CD38− • MkP: Lin-CD34+CD38+CD123−CD45RA−CD41+ • CMP: Lin-CD34+CD38+CD123lowCD45RA− • MEP: Lin-CD34+CD38+CD123−CD45RA− • GMP: Lin-CD34+CD38+CD123+CD45RA+ • EP: Lin-CD34+CD38+CD123−CD45RA−CD71+CD150+.
(Flow cytometry measures light scatter and fluorescence of single cells or particles in a stream.)

In assay [6] the test system is human CD34+ cells. As to the kind of experiment: CFU-MK colony-forming assay from CD34+ bone marrow cells. Format: cell-based. How it is done: as §1
Colony-Forming Unit Assay. Colony forming assay was performed using the MegaCult™-C Complete Kit with Cytokines (Stemcell Tech, 04971)) following manufacturer's instruction, Colonies were counted after 12-14 days of culture and megakaryopoietic colonies were stained using antibody provided in the kit.

Setting [7] is: 7-day differentiated human CD34+ cells, relative to non-treated cells.

This note sets out measurements from patent US12589114B2 (The Board of Trustees of the Leland Stanford Junior …, priority 2019, dated 2026).

The structures appear in SMILES notation.

T1 sequence (P56475 22-480): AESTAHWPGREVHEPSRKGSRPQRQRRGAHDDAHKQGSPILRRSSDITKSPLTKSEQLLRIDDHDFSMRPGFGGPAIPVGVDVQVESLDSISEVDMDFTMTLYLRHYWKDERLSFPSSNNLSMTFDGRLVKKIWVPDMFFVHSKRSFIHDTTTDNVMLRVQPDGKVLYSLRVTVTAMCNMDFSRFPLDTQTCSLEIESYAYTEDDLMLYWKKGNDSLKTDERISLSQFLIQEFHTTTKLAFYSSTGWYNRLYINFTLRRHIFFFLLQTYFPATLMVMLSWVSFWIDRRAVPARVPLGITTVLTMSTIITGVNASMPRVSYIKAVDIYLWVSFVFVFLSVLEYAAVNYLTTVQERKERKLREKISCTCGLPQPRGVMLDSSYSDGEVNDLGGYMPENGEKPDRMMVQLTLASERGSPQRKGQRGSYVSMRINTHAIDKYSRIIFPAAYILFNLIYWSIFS

For the compound `NCCCC(=O)O` [GABA, 4-aminobutanoic acid], the Megakaryocyte-related gene expression result in the assay with human CD34+ cells [1] was “significantly increased”. Besides, the “Increase of bone marrow MkPs” value on GABRR1 [2] is 63.7%±24.4%. For the same compound, the “GABA-induced currents in GR+ HSCs” value on GABRR1 [3] is listed as “significant currents were induced”. On GABRR1 [3] (various membrane potentials), the “GABA-induced inward current in GR+ MkP cells” value is listed as “prominent GABA-induced inward current”.
As to `NCc1cc(=O)[nH]o1` [Muscimol, muscimol], the “Increase of bone marrow MkPs” value on GABRR1 [2] is 55.0%±26.7%. In addition, the “Increase of platelet numbers” value at GABRR1 [4] is reported as 35.0%±13%.
Regarding `Br.COc1ccc(-c2ccc(=N)n(CCCC(=O)O)n2)cc1` [SR95531], in the assay on human CD34+ cells [5] (setting [7]), the “Change of CD34+CD41+ population (MkP)” value was “decreased dramatically” and the “Change of CD34+CD71+ population (EP)” value is on record as “decreased dramatically”. Moreover, the “Frequency of all HSPCs tested” value in the assay with human CD34+ cells [5] (multicolor flow cytometry, 7 days of differentiation from CD34+ bone marrow cells) is recorded as “decreased the frequency of all HSPCs tested”. For the same compound, the “MkP frequency relative to non-treated cells” value in the assay on human CD34+ cells [5] (multicolor flow cytometry, 7 days of differentiation from CD34+ bone marrow cells, non-treated set to 1) was 40.3%±13.6%. For the same compound, the “Decrease in megakaryocyte colonies” value in the assay on human CD34+ cells [6] is recorded as 40%. For the same compound, at GABRR1 [4], the “Increase of platelet numbers” value is given as “did not affect platelet number significantly”.
In the case of `NC/C=C/C(=O)O` [TACA, trans-4-aminocrotonic acid], the “Increase of bone marrow MkPs” value at GABRR1 [2] is 23.3%±31.1%. On GABRR1 [4], the “Increase of platelet numbers” value is 24.6%±19.0%.
